We go through ten compounds from patent US20240292836A1, “AGENTS FOR REPELLING, KNOCKING DOWN, AND/OR KILLING BLOOD-SUCKING ARTHROPODS AND USES THEREOF” (The United States of America, as represented by the …, priority 2023, published 2024).

Data set [1] relates to female Aedes aegypti adults. Put plainly: Arm-in-cage cloth-patch in vivo assay (topical repellency). Particulars: for Minimum Effective Dose (MED): Mean ± SEM, lowest dosage with five or fewer bites through repellent-treated cloth in 1-minute exposure, at least three volunteers; for topical repellency (in words): initial screening dose of 0.187 mg/cm^2. An excerpt: Arm-in-Cage Test Cloth-Patch in vivo Assay Pyrethroid-susceptible yellow fever mosquitoes Ae. aegypti (Orlando strain) were reared in the United States Department of Agriculture Mosquito and Fly Research Unit in Gainesville, FL under standard protocols. Three to seven-day-old, starved female mosquitoes were collected using a “draw box” (Posey, K. and Schreck, C. E, 1981, “An airflow apparatus for selecting female mosquitoes for use in repellent and attraction studies” Mosquito News 41: 566-568; US. Department of Agriculture, 1977, Repellent activity of compounds submitted by Walter Reed Army Institute of Research. Part 1. Protection time and minimum effective dosage against Aedes aegypti mosquitoes. Tech. Bull. No. 1549) and were placed in cages at an approximate density 200 mosquitoes/cage. Repellency was determined according to a standard protocol (Bernier, U. R., et al, 2022. “Evaluation and application of repellent-treated uniform/clothing and textiles against vector mosquitoes,” In Advances in Arthropod Repellents (pp. 69-94). Academic Press) and reported as the minimum effective dosage (MED). […] A nylon leg stocking was placed over the arm to prevent direct contact of the repellent-treated cloth patch with the skin. […]. Cloth was treated by placing a rolled bandage (50 cm^2) into each vial containing 1 mL of solution and allowing the patch to absorb the solution completely. The cloth was taped over a 4 by 9-cm opening cut into a vinyl plastic sheet that was draped around the volunteers' arms and taped in place. The cloth was air-dried approximately 15 min before conducting each test. The work reported here is an average of the MED for at least three volunteers. Each volunteer covered his or her arm with a nylon stocking to avoid contact between the skin and the treated cloth and wore a rubber glove to prevent mosquito bites on the hand.
. The minimum effective dose (MED) was determined for each repellent and subject, defined as the lowest concentration that prevents biting). MEDs from each subject were pooled and reported as the average among all replicates/subjects with SEM. A minimum of 3 replicates were performed on at least three human subjects. Written informed consent was obtained for all human subjects used in this study in accordance with IRB protocol #20193320, as approved by the WCG™ IRB.
(§1) Statistical Analyses: Student's T-test was used to compare the means between tested compound and DEET and Icaridin in the arm-in-cage in vivo assay and neurophysiological study.

Data set [2] relates to Aedes aegypti larvae central nervous system. Put plainly: Neurophysiological experiment, nerve firing of mosquito central nervous system. On the procedure: Neurophysiological Experiment—Action on Mosquito Central Nervous System All compounds were screened at 100 μM on the central nervous system of 4th instar Aedes aegypti larvae. Nerve firing was reported as the percentage firing compared to a pre-application baseline period that was determined approximately 3 minutes prior to drug application, similar to methods outlined in Norris, E. J. and Bloomquist J. R. (2021, “Recording central neurophysiological output from mosquito larvae for neuropharmacological and insecticide resistance studies,” J. Insect Physiol. 135: 104319). […] Compound potency was characterized by “time-to-nerve block” defined as the first time point where significant nerve block was observed compared to the vehicle control via a Student T-test, p<0.05 as shown in Table 1 and FIG. 2.
as §1

The subject of data set [3] is female Aedes aegypti adults. Put plainly: High-throughput in vitro screening assay, spatial repellency. In kind it is in vivo. The conditions noted are these: for 30-minute RD50 compared with that of DEET: 30 minutes, α = 0.05; for RD50 (30 min), half-repellent dose / RD50 (60 min), half-repellent dose: dose per filter paper surface area, 95% CI; for spatial repellency (in words): highest-tested dose of 100 μg/cm^2. The source says:
A high-throughput screening method for evaluating spatial repellency and vapor toxicity, described by Jiang S., et al. (2019, “High-Throughput Screening Method for Evaluating Spatial Repellency and Vapour Toxicity to Mosquitoes,” Med. Vet. Entomol. 33: 388-396), was used for this study. As shown in FIG. 2 of Jiang S., et al., assay tubes were constructed by covering 12.5 cm glass tubes on one side with netting secured by a rubber band. The tubes were used in horizontal orientation. Adult mosquitos 2-7 days old were anesthetized on ice for approximately 5 minutes and 16 females were transferred to each tube. The other end of the tube was then closed with netting and a rubber band.
The conical ends of 50 mL centrifuge tubes (Eppendorf, Enfield, Connecticut, USA) were cut at approximately the 10 mL mark to create the end caps for the assay tubes. […] For repellency tests, filter papers for the “untreated” side of the assay tube received pure acetone, whereas filter papers for the “treated” side received acetone solution containing a dissolved compound of interest. For knockdown tests, both filter papers were treated with acetone solution containing one or more compounds of interest. Acetone on both filter papers served as negative controls.
For repellency assays, filter papers were given 10 minutes of evaporation time before being placed into the end caps with forceps (Jiang S., et al. 2019, Supra). For knockdown assays, filter papers were given 5 minutes of evaporation time before being placed into the end caps. […] Assay tubes were capped such that the cap securely overlapped the glass but approximately 5 mm of space was left between the netting and the filter paper so that the mosquitos could not contact the filter paper.
Assay tubes were placed on a white polystyrene platform with wooden sticks glued flatly across it to prevent the tubes from rolling. A straight black line was drawn down the center of the platform and assay tubes were centered on the line at the beginning of the tests. In repellency assays, data were collected at 15, 30, and 60 minutes after the end caps were placed on the assay tubes. Assay tubes were not disturbed for the entire 60 minutes. At each time point, the number of mosquitos that remained on the treated side was visually assessed and recorded. The treated side was alternated with each set of tests. For repellency tests, DEET at a dose of 100 μg/cm^2 served as the positive control.
For the high-throughput in vitro screening assays, analyses were conducted with R version 4.2.2 statistical software (R Core Team, 2022, “R: a language and environment for statistical computing. R foundation for statistical computing,” Vienna, Austria). Concentrations were calculated in terms of filter paper surface area (μg/cm^2) for repellency assays and in terms of assay tube volume (μg/cm^3) for knockdown assays.
Half-repellent (RD50), half-knockdown (KD50), and half-lethal (LD50) doses were calculated from dose-response curves (DRCs) obtained by four-parameter log-logistic equation models generated using the drc package (Dose Response Curve Analyses Software; Ritz C. et al., 2015, “Dose-response analysis using R,” PLOS ONE 10: e0146021). For repellency test analysis, the upper and lower asymptotes for the proportion of mosquitos remaining on the treated side were fixed at 0.5 and 0, respectively. For KD and mortality test analysis, the upper and lower asymptotes for the proportion of mosquitos knocked down or killed were fixed at 1.0 and 0, respectively. To determine whether RD50, KD50, or LD50 values differed across compounds at each timepoint, a joint model assuming different values for each compound and a null model that assumed a single value for all compounds were compared with a likelihood ratio test.

In data set [4] the test system is female Aedes aegypti adults. Put plainly: High-throughput in vitro screening assay, knockdown and mortality. The conditions noted are these: for KD50 (30 min), half-knockdown dose / KD50 (60 min), half-knockdown dose: dose per assay tube volume, 95% CI; for time at which knockdown began: FIG. 6A, 6B, 6D; for knockdown and mortality activities (in words): in vivo.
The conditions of data set [5]: at 25.00° C.; cited from earlier work.
The conditions of data set [6]: literature evaluations; cited from earlier work.
Another data set is described as follows: Vapor pressure. In kind it is physicochemical. The conditions noted are these: MFA versus MDMA.

With `COC(=O)c1ccccc1OC` [M2MOB, methyl 2-methoxybenzoate], the “Minimum Effective Dose (MED)” value in data set [1] is recorded as 0.049 mg/cm^2. For the same compound, in data set [2] (100 μM on central nervous system of 4th instar larvae), the “Time to nerve block” value is recorded as 24 min. Also, the “30-minute RD50 compared with that of DEET” value in data set [3] is reported as “not significantly different from that of DEET”. In data set [4], the “KD50 (30 min), half-knockdown dose” value is above 7 µg/mL and the “KD50 (60 min), half-knockdown dose” value is above 7 µg/mL.
For `COC(=O)c1ccccc1[N+](=O)[O-]` [M2NB, methyl 2-nitrobenzoate], the “Minimum Effective Dose (MED)” value in data set [1] turned out to be 0.025 mg/cm^2. Further, the “30-minute RD50 compared with that of DEET” value in data set [3] is on record as “not significantly different from that of DEET”. For the same compound, in data set [4], the “KD50 (30 min), half-knockdown dose” value is above 7 µg/mL and the “KD50 (60 min), half-knockdown dose” value is above 7 µg/mL.
`COC(=O)c1ccccc1N(C)C` [MDMA, methyl N,N-dimethyl anthranilate]: the “Minimum Effective Dose (MED)” value in data set [1] came out at 0.039 mg/cm^2. Also, in data set [5], the vapor pressure is on record as 0.01 mmHg. For the same compound, in data set [3], the “RD50 (30 min), half-repellent dose” value stood at 6.58 μg/cm^2 and the “30-minute RD50 compared with that of DEET” value was “significantly lower than that of DEET”.
For `COC(=O)c1ccccc1NC=O` [MFA, methyl N-formylanthranilate], in data set [6], the “safety (in words)” value is on record as “No adverse effects to humans have been found”. In “Vapor pressure”, the “vapor pressure, times lower than that of MDMA” value came to 769 times. The “Minimum Effective Dose (MED)” value in data set [1] worked out at 0.047 mg/cm^2. Also, the vapor pressure in data set [5] is 0.000013 mmHg. In data set [3], the “RD50 (30 min), half-repellent dose” value was above 100 μg/cm^2; the “RD50 (60 min), half-repellent dose” value was above 100 μg/cm^2; the “spatial repellency (in words)” value is “did not show spatial repellencies”.
Take `CC(C)COC(=O)c1ccccc1` [iBB, iso-butyl benzoate]: in data set [1], the “Minimum Effective Dose (MED)” value was above 0.187 mg/cm^2 and the “topical repellency (in words)” value was “did not show any topical repellencies”. In data set [3], the “30-minute RD50 compared with that of DEET” value was “not significantly different from that of DEET”. In data set [4], the “KD50 (30 min), half-knockdown dose” value stood at 5.26 µg/mL; the “KD50 (60 min), half-knockdown dose” value is 5.29 µg/mL; the “time at which knockdown began” value was 5 min; the “knockdown and mortality activities (in words)” value was “exhibited considerable knockdown and mortality activities”.
For the compound `CC(C)CCOC(=O)c1ccccc1` [iPeB, iso-pentyl benzoate], in data set [1], the “Minimum Effective Dose (MED)” value is given as above 0.187 mg/cm^2 and the “topical repellency (in words)” value is on record as “did not show any topical repellencies”. Moreover, the “30-minute RD50 compared with that of DEET” value in data set [3] is on record as “not significantly different from that of DEET”. Besides, in data set [4], the “KD50 (30 min), half-knockdown dose” value came out at 3.71 µg/mL; the “KD50 (60 min), half-knockdown dose” value was determined as 3.40 µg/mL; the “time at which knockdown began” value came out at 5 min; the “knockdown and mortality activities (in words)” value is “exhibited considerable knockdown and mortality activities”.
In the case of `CCCCOC(=O)c1ccccc1` [nBB, n-butyl benzoate], in data set [1], the “Minimum Effective Dose (MED)” value amounted to 0.148 mg/cm^2 and the “topical repellency (in words)” value was “demonstrated repellency at doses lower than 0.187 mg/cm^2 on at least one test subject”. In addition, in data set [3], the “RD50 (30 min), half-repellent dose” value is given as above 100 μg/cm^2; the “RD50 (60 min), half-repellent dose” value is above 100 μg/cm^2; the “spatial repellency (in words)” value is reported as “did not show spatial repellencies”. For the same compound, in data set [4], the “KD50 (60 min), half-knockdown dose” value is 3.09 µg/mL; the “time at which knockdown began” value stood at 5 min; the “knockdown and mortality activities (in words)” value is “exhibited considerable knockdown and mortality activities”.
`CCCCCCOC(=O)c1ccccc1` [nHB, n-hexyl benzoate]: in data set [1], the “Minimum Effective Dose (MED)” value is reported as above 0.187 mg/cm^2 and the “topical repellency (in words)” value is on record as “did not show any topical repellencies”. The “30-minute RD50 compared with that of DEET” value in data set [3] is given as “not significantly different from that of DEET”. For the same compound, in data set [4], the “KD50 (30 min), half-knockdown dose” value was found to be 7.06 µg/mL; the “KD50 (60 min), half-knockdown dose” value amounted to 4.72 µg/mL; the “knockdown and mortality activities (in words)” value is “exhibited considerable knockdown and mortality activities”.
For the compound `CCCCCOC(=O)c1ccccc1` [nPeB, n-pentyl benzoate], in data set [1], the “Minimum Effective Dose (MED)” value is above 0.187 mg/cm^2 and the “topical repellency (in words)” value is given as “did not show any topical repellencies”. For the same compound, the “nerve block (in words)” value in data set [2] (100 μM, 4th instar larvae) is on record as “Nerve block was produced by all compounds screened at this concentration, except for compound nPeB”. For the same compound, the “30-minute RD50 compared with that of DEET” value in data set [3] is given as “not significantly different from that of DEET”. In data set [4], the “KD50 (30 min), half-knockdown dose” value stood at 4.77 µg/mL; the “KD50 (60 min), half-knockdown dose” value is 3.98 µg/mL; the “knockdown and mortality activities (in words)” value is “exhibited considerable knockdown and mortality activities”.
For `CCCOC(=O)c1ccccc1NC=O` [nPrFA, n-Propyl N-formylanthranilate], the “Minimum Effective Dose (MED)” value in data set [1] is reported as 0.0028 mg/cm^2. In addition, the “MED, times lower than the initial screening dose” value in data set [1] (relative to initial screening dose of 0.187 mg/cm^2) was determined as 64 times. For the same compound, in data set [3], the “RD50 (30 min), half-repellent dose” value is given as above 100 μg/cm^2; the “RD50 (60 min), half-repellent dose” value is above 100 μg/cm^2; the “spatial repellency (in words)” value is on record as “did not show any spatial repellencies”.
